The values below come from patent publication US5254589A, “Sulfonyl urea and carbamate ACAT inhibitors” (priority 1991, dated 1993).

Structures are written as SMILES.

Test [1] has as its target T1, acyl-CoA:cholesterol acyltransferase (ACAT) (Oryctolagus cuniculus, UniProt G1SFD9).
T1 construct: in a tissue preparation containing rabbit intestinal microsomes; from tissue; host or cells: rabbit intestine, microsomes
T1 sequence (G1SFD9 1-524): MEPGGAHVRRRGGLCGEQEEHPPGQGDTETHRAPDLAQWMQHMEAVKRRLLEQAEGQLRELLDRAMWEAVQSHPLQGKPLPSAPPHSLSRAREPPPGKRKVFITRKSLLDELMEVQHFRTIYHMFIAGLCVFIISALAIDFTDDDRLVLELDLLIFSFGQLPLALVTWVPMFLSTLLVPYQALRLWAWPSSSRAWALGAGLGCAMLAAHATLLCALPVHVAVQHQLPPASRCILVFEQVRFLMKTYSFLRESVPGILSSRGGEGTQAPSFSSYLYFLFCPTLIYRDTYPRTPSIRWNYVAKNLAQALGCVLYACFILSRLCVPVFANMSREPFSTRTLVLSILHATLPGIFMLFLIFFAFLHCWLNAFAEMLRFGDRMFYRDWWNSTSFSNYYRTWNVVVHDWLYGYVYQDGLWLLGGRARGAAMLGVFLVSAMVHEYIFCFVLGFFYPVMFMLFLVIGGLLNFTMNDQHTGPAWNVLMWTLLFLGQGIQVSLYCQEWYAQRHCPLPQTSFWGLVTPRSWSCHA
Put plainly: In vitro ACAT inhibition (IAI): formation of radiolabeled cholesterol oleate from radiolabeled oleic acid in rabbit intestinal microsomes. To be noted: inhibition of acylation of cholesterol by oleic acid. Format: biochemical. The source says:
As shown by the data presented below in Table 1, the compounds of the present invention are potent inhibitors of the enzyme acyl-CoA:cholesterolacyltransferase (ACAT), and are thus effective in inhibiting the esterification and transport of cholesterol across the intestinal cell wall. The compounds of the present invention are thus useful in pharmaceutical formulations for the treatment of hypercholesterolemia or atherosclerosis. The ability of representative compounds of the present invention to inhibit ACAT was measured using an in vitro test more fully described in F. J. Field and R. G. Salone, Biochemica et Biophysica 712:557-570 (1982). The test assesses the ability of a test compound to inhibit the acylation of cholesterol by oleic acid by measuring the amount of radiolabeled cholesterol oleate formed from radiolabeled oleic acid in a tissue preparation containing rabbit intestinal microsomes.

Test [2] can be described thus: In vivo screen APCC: blood cholesterol in rats fed a high fat, high cholesterol diet with 0.5% cholic acid. On the set-up: species or system male Sprague-Dawley rats. To be noted: 16 h, rat, 30 mg/kg unless otherwise noted, dosed at 4 PM, high cholesterol diet overnight, blood sampled at 8 AM, read-out: APCC (% .increment.TC). The source says: In one in vivo screen designated APCC, male Sprague-Dawley rats (200 to 225 g) were randomly divided into treatment groups and dosed at 4 PM with either vehicle (CMC/Tween) or suspensions of compounds in vehicle. The normal chow diet was then replaced with a high fat, high cholesterol diet with 0.5% cholic acid. The rats consumed this diet ad libitum during the night and were sacrificed at 8 AM to obtain blood samples for cholesterol analysis using standard procedures. Statistical differences between mean cholesterol values for the same vehicle were determined using analysis of variance followed by Fisher's least significant test. The compounds were dosed at 30 mg/kg unless otherwise noted.

As for `CCCCCCCCCCCCCC(C)S(=O)(=O)NC(=O)Nc1c(C(C)C)cccc1C(C)C` (stereo not shown) [Example 1, N-[2,6-Bis(1-methylethyl)phenyl]-N'-(2-pentadecylsulfonyl)urea], 1020 nM corresponded to half-maximal inhibition in test [1] (IC50). Moreover, the change in vivo at 30 mg/kg in test [2] was -76%. Regarding `CCCCCCCCCCCCCCS(=O)(=O)NC(=O)Nc1c(C(C)C)cccc1C(C)C` [Example 2, N-[2,6-Bis(1-methylethyl)phenyl]-N'-(tetradecylsulfonyl)urea], the concentration for half-maximal inhibition (IC50) in test [1] came to 830 nM. Also, in test [2], the change in vivo at 30 mg/kg was -56%.

In the case of `CCCCCCCCCCCCCCS(=O)(=O)N(C)C(=O)Nc1c(C(C)C)cccc1C(C)C` [Example 3, N-[2,6-Bis(1-methylethyl)phenyl]-N'-methyl-N'-(tetradecylsulfonyl)urea], the half-maximal inhibitory concentration (IC50) in test [1] is more than 5000 nM. Besides, the change in vivo at 30 mg/kg in test [2] is -34%. In test [1], `CCCCCCCCCCCCCCS(=O)(=O)N(Cc1ccccc1)C(=O)Nc1c(C(C)C)cccc1C(C)C` [Example 4] registered a half-inhibitory concentration (IC50) of 510 nM.

For `CCCCCCCCS(=O)(=O)NC(=O)Nc1c(C(C)C)cccc1C(C)C` [Example 5, N-[2,6-Bis(1-methylethyl)phenyl]-N'-(octylsulfonyl)urea], the concentration for half-maximal inhibition (IC50) in test [1] was more than 5000 nM.

Turning to `CCCCCCCCCCCCS(=O)(=O)NC(=O)Nc1c(C(C)C)cccc1C(C)C` [Example 6, N-[2,6-Bis(1-methylethyl)phenyl]-N'-(dodecylsulfonyl)urea], it took 1190 nM to reach half-maximal inhibition in test [1] (IC50). Also, in test [2], the change in vivo at 30 mg/kg was -63%.

For `CCCCCCCCCCCCCCCCS(=O)(=O)NC(=O)Nc1c(C(C)C)cccc1C(C)C` [Example 7, N-[2,6-Bis(1-methylethyl)phenyl]-N'-(hexadecylsulfonyl)urea], the 50% inhibitory concentration (IC50) in test [1] came out at 1270 nM. For the same compound, in test [2], the change in vivo at 30 mg/kg was -64%. Consider `CCCCCCCCCCS(=O)(=O)NC(=O)Nc1c(C(C)C)cccc1C(C)C` [Example 8, N-[2,6-Bis(1-methylethyl)phenyl]-N'-(decylsulfonyl)urea], for which half-maximal inhibition in test [1] (IC50) required 13000 nM. Also, the change in vivo at 30 mg/kg in test [2] was -31%. Taken in the same sequence, the figures for `CCCCCCCCCCCCCCS(=O)(=O)NC(=O)Nc1ccc(F)cc1F` [Example 10, N-(2,4-Difluorophenyl)-N'-(tetradecylsulfonyl)urea] were 5000 nM and -14%. Taken in the same sequence, the figures for `CCCCCCCCCCCCS(=O)(=O)N(C)C(=O)Nc1c(C(C)C)cccc1C(C)C` [Example 11] were 86 nM and -49%. In the case of `CCCCCCCCCCCCCC(c1ccccc1)S(=O)(=O)NC(=O)Nc1c(C(C)C)cccc1C(C)C` (stereo not shown) [Example 14, N-[2,6-Bis(1-methylethyl)phenyl]-N'-(1-phenyl-1-tetradecylsulfonyl)urea], the IC50 in test [1] is 2000 nM. For the same compound, the change in vivo at 30 mg/kg in test [2] is -72%. For `CCCCCCCCC(c1ccccc1)S(=O)(=O)NC(=O)Nc1c(C(C)C)cccc1C(C)C` (stereo not shown) [Example 15, N-[2,6-Bis(1-methylethyl)phenyl]-N'-(1-phenyl-1-nonylsulfonyl)urea], in that order: 9200 nM and -75%.
